Here are results for three substances from patent US20160375050A1, “METHODS AND COMPOSITIONS INVOLVING CHITOSAN NANOPARTICLES” (The Board of Regents of the University of Texas System, priority 2007, published 2016).

For series [1], the system named is EZH2 promoter in EAhy926 endothelial cell line. The series can be described thus: EZH2 promoter luciferase reporter assay. To be noted: EAhy926, 6 hours, EGF 25 ng/mL, VEGF 50 ng/mL. Type of series: cell-based, human. The protocol: Relative activity of the EZH2 promoter in the EAhy926 cell line was determined by luciferase reporter assay. Cells were transfected in low-serum medium (0.5% serum) with the firefly luciferase plasmid, either empty vector (pGL3-Basic) or the EZH2 promoter construct vector (EZH2prom-pGL3-Basic), in 12-well plates using Effectene® Transfection Reagent from Qiagen (Valencia, Calif.). Cells were then maintained in low-serum medium for 18 hours, washed in warm 1× phosphate-buffered saline (PBS), and treated in triplicate at 37° C. for 6 hours. Treatments included recombinant human (rh) EGF (EGF; 25 ng/mL; Invitrogen) and rhVEGF165 (VEGF; 50 ng/mL; Peprotech, Rocky Hill, N.J.), each in fresh medium plus 0.5% serum, fresh complete medium plus 10% serum, and conditioned media from immortalized ovarian surface epithelium (105E120) and from papillary serous ovarian cancer cell lines (OVCA420 and SKOV3). Medium in control wells (pGL3-Basic transfectants) was not changed on the day of treatment. Following treatment, cells were washed briefly in cold 1×PBS and lysates were collected and processed using the Dual-Luciferase® Reporter Assay System (Promega Corp.). Firefly luciferase readings were averaged and normalized to pGL3-Basic control readings for percent fold changes.

Series [2] relates to VASH1 mRNA in MOEC. The series can be described thus: VASH1 mRNA after EZH2 gene silencing, real-time qRT-PCR. In kind it is cell-based, mouse. To be noted: 72 hours after transfection. On the procedure:
Relative expression of EZH2 and VASH1 mRNA in HUVEC and MOEC cells was determined by real-time quantitative RT-PCR. Cells were seeded at 1.0×10^4 cells per well in 96-well plates in complete medium and incubated at 37° C. for 24 hours, and then in low-serum medium (0.5% serum) for 18 hours, minus EGF and VEGF supplements where appropriate. After washing with warm PBS, cells were treated in triplicate at 37° C. for six hours with EGF (25 ng/mL) and VEGF (50 ng/mL), each in fresh medium (lacking supplemental EGF or VEGF) with no serum, fresh complete medium plus 2% serum, and conditioned media. Relative expression of VASH1 mRNA in MOEC cells was determined by transfecting cells with EZH2 mouse siRNA. Samples were collected after 72 hours of transfection. Real-time quantitative RT-PCR was performed using 50 ng total RNA isolated from treated cells using the RNeasy Mini Kit (Qiagen). Relative expression values were obtained using the average of three reference genes and the 2^−ΔΔCT method as described previously, and normalized to control for percent fold changes (Donninger et al., 2004).
(Quantitative PCR measures a nucleic acid by following its amplification.)

On to “EGF: recombinant human EGF, Invitrogen (NSDSECPLSHDGYCLHDGVCMYIEALDKYACNCVVGYIGERCQYRDLKWWELR; Epidermal growth factor; UniProt P01133 971-1023, looked up)”, for which the EZH2 promoter activity entry in series [1] is “significant increase”.

For the substance VEGF, the EZH2 promoter activity entry in series [1] is “significant increase”.

As for “mouse EZH2 siRNA: Murine EZH2 siRNA, target 5′-GCACAAGTCATCCCGTTAATT-3′ (SEQ ID NO: 15), transfected in vitro (target site or template, no part of the molecule; listed as DNA, chemistry not given here)”, the “increase in VASH1 mRNA compared to control siRNA treated cells” value in series [2] is on record as 2.8 fold.
